Measurements as given in the supplement of paper PMC10307832.

Assays:
Experiment in all cases: relative viability (nuclei count vs DMSO), 5 days (fraction); higher = more cells survive
[1] = compound: CC1=NN=C(O1)C2=NN=C(C=C2)N3CCC(CC3)OC4=C(C=CC(=C4)F)Cl + Cc1nc(NC(=O)N2CCC[C@H]2C(N)=O)sc1-c1ccnc(C(C)(C)C(F)(F)F)c1 [Alpelisib] (partner 2 µM)
Summary of the method: (§1)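 Nuclei were stained with Hoechst during a one-step fixation (final 0.05% Triton X-100, 1% formaldehyde, 1 ug/ml Hoechst) carried out 5 days after dosing, then counted on 4× images. The cells, lung cancer lines in 1536-well plates, had been dosed by pin tool the day after seeding with one drug alone or a fixed anchor-drug dose plus five library-drug doses (not always all listed) in √10 steps. Relative viability is the nuclei count in treated wells divided by that in vehicle wells, and each value is the median of duplicate plates.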

[2] = compound: CC1=NN=C(O1)C2=NN=C(C=C2)N3CCC(CC3)OC4=C(C=CC(=C4)F)Cl + COc1cccc2cc(-c3nc([C@H]4CC[C@H](C(=O)O)CC4)n4ncnc(N)c34)[nH]c12 [OSI-027] (partner 0.5 µM)
Summary of the method: as §1

[3] = compound: CC1=NN=C(O1)C2=NN=C(C=C2)N3CCC(CC3)OC4=C(C=CC(=C4)F)Cl + O=C(CCCCCCC(=O)Nc1ccccc1)NO [Vorinostat] (partner 1 µM)
Summary of the method: as §1

[4] = compound: CC1=NN=C(O1)C2=NN=C(C=C2)N3CCC(CC3)OC4=C(C=CC(=C4)F)Cl + C[C@]1(O)C[C@@H](c2nc(-c3ccc4ccc(-c5ccccc5)nc4c3)c3c(N)nccn32)C1 [Linsitinib] (partner 1 µM)
Summary of the method: as §1

Row | Cell Line | relative viability ([1]; first compound 0.253 µM) | relative viability ([1]; first compound 0.8 µM) | relative viability ([1]; first compound 2.53 µM) | relative viability ([1]; first compound 8 µM) | relative viability ([2]; first compound 0.253 µM) | relative viability ([2]; first compound 0.8 µM) | relative viability ([2]; first compound 2.53 µM) | relative viability ([2]; first compound 8 µM) | relative viability ([3]; first compound 0.253 µM) | relative viability ([3]; first compound 0.8 µM) | relative viability ([3]; first compound 2.53 µM) | relative viability ([3]; first compound 8 µM) | relative viability ([4]; first compound 0.253 µM) | relative viability ([4]; first compound 0.8 µM) | relative viability ([4]; first compound 2.53 µM) | relative viability ([4]; first compound 8 µM)
1 | HCC-44 | 0.491 | 0.573 | 0.56 | 0.474 | 0.391 | 0.53 | 0.344 | 0.389 | 0.584 | 0.708 | 0.698 | 0.423 | 0.423 | 0.484 | 0.484 | 0.384
2 | NCI-H838 | 0.833 | 0.867 | 0.916 | 0.947 | 0.37 | 0.394 | 0.396 | 0.331 | 0.583 | 0.599 | 0.607 | 0.623 | 0.919 | 0.872 | 0.93 | 0.856
3 | H3255 | 0.562 | 0.614 | 0.633 | 0.571 | 0.578 | 0.581 | 0.545 | 0.511 | 0.581 | 0.597 | 0.533 | 0.557 | 0.697 | 0.719 | 0.718 | 0.716
4 | PC-14 | 0.849 | 0.827 | 0.885 | 0.857 | 0.818 | 0.572 | 0.721 | 0.643 | 0.695 | 0.543 | 0.714 | 0.567 | 0.783 | 0.732 | 0.777 | 0.739
5 | NCI-H2228 | 0.684 | 0.545 | 0.923 | 0.479 | 0.41 | 0.448 | 0.302 | 0.468 | 0.454 | 0.586 | 0.391 | 0.542 | 0.673 | 0.808 | 0.481 | 0.547
6 | NCI-H322M | 0.0721 | 0.707 | 0.7 | 0.747 | 0.513 | 0.492 | 0.636 | 0.516 | 0.812 | 0.87 | 0.948 | 0.799 | 0.853 | 0.836 | 0.896 | 0.786
7 | NCI-H1944 | 0.565 | 0.629 | 0.691 | 0.648 | 0.36 | 0.379 | 0.441 | 0.425 | 0.349 | 0.329 | 0.427 | 0.393 | 0.626 | 0.769 | 0.728 | 0.717
8 | NCI-H1793 | 0.716 | 0.773 | 0.717 | 0.559 | 0.253 | 0.2 | 0.296 | 0.276 | 0.683 | 0.567 | 0.79 | 0.666 | 0.725 | 0.735 | 0.952 | 0.822
9 | NCI-H727 | 0.569 | 0.58 | 0.593 | 0.471 | 0.704 | 0.494 | 0.685 | 0.741 | 1.16 | 1.02 | 1.38 | 1.22 | 0.189 | 0.251 | 0.327 | 0.251
10 | NCI-H661 | 0.73 | 0.421 | 0.629 | 0.564 | 0.633 | 0.588 | 0.528 | 0.484 | 0.802 | 0.745 | 0.702 | 0.629 | 0.566 | 0.531 | 0.62 | 0.469
11 | EKVX | 0.446 | 0.323 | 0.363 | 0.462 | 0.481 | 0.465 | 0.362 | 0.423 | 0.439 | 0.381 | 0.442 | 0.463 | 0.409 | 0.341 | 0.364 | 0.423
12 | NCI-H358 | 0.72 | 0.829 | 0.778 | 0.822 | 0.635 | 0.461 | 0.561 | 0.514 | 0.405 | 0.341 | 0.399 | 0.35 | 0.714 | 0.751 | 0.758 | 0.795
13 | EPLC-272H | 0.925 | – | 1.14 | 0.917 | 0.283 | 0.248 | 0.26 | 0.298 | 0.352 | 0.529 | 0.313 | 0.387 | 1.09 | – | 1.18 | 1.05
14 | NCI-H1666 | 0.672 | 0.738 | 0.846 | 0.792 | 0.539 | 0.697 | 0.801 | 0.797 | 0.735 | 0.862 | 0.868 | 0.864 | 0.589 | 0.725 | 0.791 | 0.656
15 | NCI-H1395 | 0.962 | 0.897 | 0.995 | 1 | 0.641 | 0.588 | 0.639 | 0.595 | 0.656 | 0.563 | 0.671 | 0.593 | 0.931 | 0.943 | 1.09 | 1.06
16 | NCI-H2405 | 0.745 | 0.778 | 0.691 | 0.828 | 0.607 | 0.549 | 0.634 | 0.616 | 0.583 | 0.556 | 0.535 | 0.455 | 0.859 | 0.784 | 0.851 | 0.731

Row | Cell Line | relative viability ([1]; first compound 0.253 µM) | relative viability ([1]; first compound 0.8 µM) | relative viability ([1]; first compound 2.53 µM) | relative viability ([1]; first compound 8 µM) | relative viability ([2]; first compound 0.253 µM) | relative viability ([2]; first compound 0.8 µM) | relative viability ([2]; first compound 2.53 µM) | relative viability ([2]; first compound 8 µM) | relative viability ([3]; first compound 0.253 µM) | relative viability ([3]; first compound 0.8 µM) | relative viability ([3]; first compound 2.53 µM) | relative viability ([3]; first compound 8 µM) | relative viability ([4]; first compound 0.253 µM) | relative viability ([4]; first compound 0.8 µM) | relative viability ([4]; first compound 2.53 µM) | relative viability ([4]; first compound 8 µM)
17 | NCI-H2126 | 0.696 | 0.666 | 0.711 | 0.598 | 0.626 | 0.589 | 0.756 | 0.661 | 0.754 | 0.651 | 0.642 | 0.631 | 0.67 | 0.64 | 0.753 | 0.505
18 | NCI-H460 | 0.356 | 0.359 | 0.394 | 0.391 | 0.319 | 0.302 | 0.137 | 0.0418 | 0.16 | 0.215 | 0.208 | 0.19 | 0.331 | 0.3 | 0.398 | 0.342
19 | NCI-H1993 | 0.616 | 0.619 | 0.65 | 0.702 | 0.457 | 0.552 | 0.523 | 0.581 | 0.681 | 0.763 | 0.766 | 0.762 | 0.679 | 0.745 | 0.647 | 0.693
20 | HCC-78 | 0.318 | 0.309 | 0.308 | 0.321 | 0.414 | 0.369 | 0.348 | 0.335 | 0.425 | 0.48 | 0.393 | 0.381 | 0.455 | 0.417 | 0.459 | 0.403
21 | LU99A | 0.547 | 0.526 | 0.559 | 0.495 | 0.274 | 0.298 | 0.307 | 0.287 | 0.549 | 0.456 | 0.534 | 0.563 | 0.459 | 0.5 | 0.498 | 0.466
22 | NCI-H520 | 0.864 | 0.846 | 0.953 | 0.88 | 0.336 | – | 0.337 | 0.244 | 0.561 | 0.712 | 0.569 | 0.613 | 0.929 | 0.793 | 0.93 | 0.755
23 | HCC-827 | 0.492 | 0.358 | 0.492 | 0.476 | 0.602 | 0.362 | 0.653 | 0.591 | 0.382 | 0.207 | 0.322 | 0.377 | 0.395 | 0.281 | 0.366 | 0.355
24 | NCI-H1975 | – | 0.725 | 0.753 | 0.779 | – | 0.529 | 0.754 | 0.695 | 0.606 | 0.643 | 0.629 | 0.619 | – | 0.941 | 0.815 | 0.868
25 | NCI-H2085 | 0.922 | 0.908 | 0.8 | 0.71 | 0.594 | – | 0.732 | 0.49 | 0.649 | 0.557 | 0.687 | 0.58 | 0.743 | 0.793 | 0.792 | 0.65
26 | NCI-H1734 | 0.655 | 0.635 | 0.672 | 0.556 | 0.647 | 0.446 | 0.599 | 0.524 | 0.721 | 0.692 | 0.721 | 0.737 | 0.863 | 0.783 | 0.814 | 0.601
27 | NCI-H650 | 1.17 | 0.948 | 1 | 0.986 | 0.553 | 0.447 | 0.528 | 0.437 | 0.451 | 0.248 | 0.294 | 0.329 | 0.981 | 0.766 | 0.773 | 0.786
28 | LCLC-103H | 0.792 | 0.946 | 0.775 | 0.776 | 0.372 | 0.426 | 0.426 | 0.385 | 0.503 | 0.478 | 0.531 | 0.475 | 0.807 | 0.867 | 0.761 | 0.711
29 | LCLC-97TM1 | 0.28 | – | 0.237 | 0.292 | 0.523 | 0.391 | 0.472 | 0.508 | 0.649 | – | 0.522 | 0.573 | 0.159 | – | 0.174 | 0.191
30 | SK-LU-1 | 0.754 | 0.812 | 0.938 | 0.737 | 0.3 | – | 0.247 | 0.199 | 0.675 | 0.629 | 0.662 | 0.589 | 1.03 | 0.852 | 1.02 | 0.589
31 | HOP-62 | 0.791 | – | 0.609 | 0.505 | 0.762 | 0.579 | 0.771 | 0.555 | 0.543 | 0.243 | 0.287 | 0.203 | 0.677 | – | 0.771 | 0.443
32 | NCI-H23 | 0.635 | – | 0.663 | 0.822 | 0.49 | – | 0.547 | 0.627 | 0.565 | 0.359 | 0.558 | 0.514 | 0.482 | – | 0.543 | 0.521
